{"source": "PubChem BioAssay AID1963981", "about": "(Molecular Pharmacology Branch, DTP, NCI, 2024);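 also: spheroids exposed to agents for seven days before the viability read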", "test_system": "354836-022-R-J1-PDC multicell spheroid viability", "test": "Anticancer human tumor 354836-022-R-J1-PDC patient-derived head and neck squamous cell carcinoma cell line growth inhibition [PI3K]", "details": "for IC50: curve of first compound; for viability, T/C: stronger effect = lower value", "outline": "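Multi-cell spheroids combine tumor cells with HUVEC and human MSCs, treated with targeted agents alone or with inavolisib, alpelisib, duvelisib or copanlisib. Concentrations fall in half-log steps from at or near clinical Cmax, or from 10 microM where Cmax is unknown; viability read-out.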", "key": {"[1]": {"details": "second compound 0.0316 µM, first compound 0.0316 µM"}, "[2]": {"details": "second compound 0.0316 µM, first compound 0.1 µM"}, "[3]": {"details": "second compound 0.1 µM, first compound 0.0316 µM"}, "[4]": {"details": "second compound 0.1 µM, first compound 0.1 µM"}, "[5]": {"details": "second compound 0.316 µM, first compound 0.0316 µM"}, "[6]": {"details": "second compound 0.316 µM, first compound 0.1 µM"}, "[7]": {"details": "second compound 1 µM, first compound 0.0316 µM"}, "[8]": {"details": "second compound 1 µM, first compound 0.1 µM"}, "[9]": {"details": "second compound 3.16 µM, first compound 0.0316 µM"}, "[10]": {"details": "second compound 3.16 µM, first compound 0.1 µM"}, "[11]": {"details": "second compound 10 µM, first compound 0.0316 µM"}, "[12]": {"details": "second compound 10 µM, first compound 0.1 µM"}}}
{"smiles": "Cn1ncnc1[C@H]1c2n[nH]c(=O)c3cc(F)cc(c23)N[C@@H]1c1ccc(F)cc1", "note": "+ CC(Nc1ncnc2nc[nH]c12)c1cc2cccc(Cl)c2c(=O)n1-c1ccccc1", "values": [{"measurement": "IC50", "setting": "second compound 0.0316 µM", "value": "> 0.1", "unit": "µM"}, {"measurement": "IC50", "setting": "second compound 0.1 µM", "value": "> 0.1", "unit": "µM"}, {"measurement": "IC50", "setting": "second compound 0.316 µM", "value": "> 0.1", "unit": "µM"}, {"measurement": "IC50", "setting": "second compound 1 µM", "value": "> 0.1", "unit": "µM"}, {"measurement": "IC50", "setting": "second compound 3.16 µM", "value": "> 0.1", "unit": "µM"}, {"measurement": "IC50", "setting": "second compound 10 µM", "value": "> 0.1", "unit": "µM"}, {"measurement": "viability, T/C", "setting": "second compound 0.0316 µM, first compound 0.000316 µM", "value": 91.2, "unit": "%"}, {"measurement": "viability, T/C", "setting": "second compound 0.0316 µM, first compound 0.001 µM", "value": 88.5, "unit": "%"}, {"measurement": "viability, T/C", "setting": "second compound 0.0316 µM, first compound 0.00316 µM", "value": 85.4, "unit": "%"}, {"measurement": "viability, T/C", "setting": "second compound 0.0316 µM, first compound 0.01 µM", "value": 108, "unit": "%"}, {"measurement": "viability, T/C", "setting": "[1]", "value": 105, "unit": "%"}, {"measurement": "viability, T/C", "setting": "[2]", "value": 106, "unit": "%"}, {"measurement": "viability, T/C", "setting": "second compound 0.1 µM, first compound 0.000316 µM", "value": 102, "unit": "%"}, {"measurement": "viability, T/C", "setting": "second compound 0.1 µM, first compound 0.001 µM", "value": 97.2, "unit": "%"}, {"measurement": "viability, T/C", "setting": "second compound 0.1 µM, first compound 0.00316 µM", "value": 98.2, "unit": "%"}, {"measurement": "viability, T/C", "setting": "second compound 0.1 µM, first compound 0.01 µM", "value": 86.4, "unit": "%"}, {"measurement": "viability, T/C", "setting": "[3]", "value": 101, "unit": "%"}, {"measurement": "viability, T/C", "setting": "[4]", "value": 83.1, "unit": "%"}, {"measurement": "viability, T/C", "setting": "second compound 0.316 µM, first compound 0.000316 µM", "value": 100, "unit": "%"}, {"measurement": "viability, T/C", "setting": "second compound 0.316 µM, first compound 0.001 µM", "value": 117, "unit": "%"}, {"measurement": "viability, T/C", "setting": "second compound 0.316 µM, first compound 0.00316 µM", "value": 98.8, "unit": "%"}, {"measurement": "viability, T/C", "setting": "second compound 0.316 µM, first compound 0.01 µM", "value": 104, "unit": "%"}, {"measurement": "viability, T/C", "setting": "[5]", "value": 92.7, "unit": "%"}, {"measurement": "viability, T/C", "setting": "[6]", "value": 88.6, "unit": "%"}, {"measurement": "viability, T/C", "setting": "second compound 1 µM, first compound 0.000316 µM", "value": 110, "unit": "%"}, {"measurement": "viability, T/C", "setting": "second compound 1 µM, first compound 0.001 µM", "value": 96.5, "unit": "%"}, {"measurement": "viability, T/C", "setting": "second compound 1 µM, first compound 0.00316 µM", "value": 110, "unit": "%"}, {"measurement": "viability, T/C", "setting": "second compound 1 µM, first compound 0.01 µM", "value": 96.2, "unit": "%"}, {"measurement": "viability, T/C", "setting": "[7]", "value": 100, "unit": "%"}, {"measurement": "viability, T/C", "setting": "[8]", "value": 79.8, "unit": "%"}, {"measurement": "viability, T/C", "setting": "second compound 3.16 µM, first compound 0.000316 µM", "value": 108, "unit": "%"}, {"measurement": "viability, T/C", "setting": "second compound 3.16 µM, first compound 0.001 µM", "value": 107, "unit": "%"}, {"measurement": "viability, T/C", "setting": "second compound 3.16 µM, first compound 0.00316 µM", "value": 92.1, "unit": "%"}, {"measurement": "viability, T/C", "setting": "second compound 3.16 µM, first compound 0.01 µM", "value": 96.7, "unit": "%"}, {"measurement": "viability, T/C", "setting": "[9]", "value": 99.6, "unit": "%"}, {"measurement": "viability, T/C", "setting": "[10]", "value": 73.4, "unit": "%"}, {"measurement": "viability, T/C", "setting": "second compound 10 µM, first compound 0.000316 µM", "value": 94.7, "unit": "%"}, {"measurement": "viability, T/C", "setting": "second compound 10 µM, first compound 0.001 µM", "value": 87.1, "unit": "%"}, {"measurement": "viability, T/C", "setting": "second compound 10 µM, first compound 0.00316 µM", "value": 85.8, "unit": "%"}, {"measurement": "viability, T/C", "setting": "second compound 10 µM, first compound 0.01 µM", "value": 93.3, "unit": "%"}, {"measurement": "viability, T/C", "setting": "[11]", "value": 89.3, "unit": "%"}, {"measurement": "viability, T/C", "setting": "[12]", "value": 65.2, "unit": "%"}]}
{"smiles": "CC(Cn1ccc(-c2ccc(C#N)c(Cl)c2)n1)NC(=O)c1cc(C(C)O)[nH]n1", "note": "(centres undefined) + CC(Nc1ncnc2nc[nH]c12)c1cc2cccc(Cl)c2c(=O)n1-c1ccccc1", "values": [{"measurement": "IC50", "setting": "second compound 0.0316 µM", "value": "> 10", "unit": "µM"}, {"measurement": "IC50", "setting": "second compound 0.1 µM", "value": "> 10", "unit": "µM"}, {"measurement": "IC50", "setting": "second compound 0.316 µM", "value": "> 10", "unit": "µM"}, {"measurement": "IC50", "setting": "second compound 1 µM", "value": "> 10", "unit": "µM"}, {"measurement": "IC50", "setting": "second compound 3.16 µM", "value": "> 10", "unit": "µM"}, {"measurement": "IC50", "setting": "second compound 10 µM", "value": "> 10", "unit": "µM"}, {"measurement": "viability, T/C", "setting": "[1]", "value": 99.3, "unit": "%"}, {"measurement": "viability, T/C", "setting": "[2]", "value": 91.8, "unit": "%"}, {"measurement": "viability, T/C", "setting": "second compound 0.0316 µM, first compound 0.316 µM", "value": 96.6, "unit": "%"}, {"measurement": "viability, T/C", "setting": "second compound 0.0316 µM, first compound 1 µM", "value": 112, "unit": "%"}, {"measurement": "viability, T/C", "setting": "second compound 0.0316 µM, first compound 3.16 µM", "value": 97.7, "unit": "%"}, {"measurement": "viability, T/C", "setting": "second compound 0.0316 µM, first compound 10 µM", "value": 84.4, "unit": "%"}, {"measurement": "viability, T/C", "setting": "[3]", "value": 87.8, "unit": "%"}, {"measurement": "viability, T/C", "setting": "[4]", "value": 102, "unit": "%"}, {"measurement": "viability, T/C", "setting": "second compound 0.1 µM, first compound 0.316 µM", "value": 89.6, "unit": "%"}, {"measurement": "viability, T/C", "setting": "second compound 0.1 µM, first compound 1 µM", "value": 104, "unit": "%"}, {"measurement": "viability, T/C", "setting": "second compound 0.1 µM, first compound 3.16 µM", "value": 85, "unit": "%"}, {"measurement": "viability, T/C", "setting": "second compound 0.1 µM, first compound 10 µM", "value": 93.3, "unit": "%"}, {"measurement": "viability, T/C", "setting": "[5]", "value": 91.2, "unit": "%"}, {"measurement": "viability, T/C", "setting": "[6]", "value": 90.6, "unit": "%"}, {"measurement": "viability, T/C", "setting": "second compound 0.316 µM, first compound 0.316 µM", "value": 97.6, "unit": "%"}, {"measurement": "viability, T/C", "setting": "second compound 0.316 µM, first compound 1 µM", "value": 87.9, "unit": "%"}, {"measurement": "viability, T/C", "setting": "second compound 0.316 µM, first compound 3.16 µM", "value": 101, "unit": "%"}, {"measurement": "viability, T/C", "setting": "second compound 0.316 µM, first compound 10 µM", "value": 89.1, "unit": "%"}, {"measurement": "viability, T/C", "setting": "[7]", "value": 106, "unit": "%"}, {"measurement": "viability, T/C", "setting": "[8]", "value": 91.4, "unit": "%"}, {"measurement": "viability, T/C", "setting": "second compound 1 µM, first compound 0.316 µM", "value": 93.1, "unit": "%"}, {"measurement": "viability, T/C", "setting": "second compound 1 µM, first compound 1 µM", "value": 108, "unit": "%"}, {"measurement": "viability, T/C", "setting": "second compound 1 µM, first compound 3.16 µM", "value": 83.5, "unit": "%"}, {"measurement": "viability, T/C", "setting": "second compound 1 µM, first compound 10 µM", "value": 78.8, "unit": "%"}, {"measurement": "viability, T/C", "setting": "[9]", "value": 113, "unit": "%"}, {"measurement": "viability, T/C", "setting": "[10]", "value": 96.8, "unit": "%"}, {"measurement": "viability, T/C", "setting": "second compound 3.16 µM, first compound 0.316 µM", "value": 95, "unit": "%"}, {"measurement": "viability, T/C", "setting": "second compound 3.16 µM, first compound 1 µM", "value": 97.2, "unit": "%"}, {"measurement": "viability, T/C", "setting": "second compound 3.16 µM, first compound 3.16 µM", "value": 90.7, "unit": "%"}, {"measurement": "viability, T/C", "setting": "second compound 3.16 µM, first compound 10 µM", "value": 83.7, "unit": "%"}, {"measurement": "viability, T/C", "setting": "[11]", "value": 96.5, "unit": "%"}, {"measurement": "viability, T/C", "setting": "[12]", "value": 93.2, "unit": "%"}, {"measurement": "viability, T/C", "setting": "second compound 10 µM, first compound 0.316 µM", "value": 83.8, "unit": "%"}, {"measurement": "viability, T/C", "setting": "second compound 10 µM, first compound 1 µM", "value": 96.9, "unit": "%"}, {"measurement": "viability, T/C", "setting": "second compound 10 µM, first compound 3.16 µM", "value": 95.2, "unit": "%"}, {"measurement": "viability, T/C", "setting": "second compound 10 µM, first compound 10 µM", "value": 75.7, "unit": "%"}]}
